From US10702507B2, “Endoparasite control agent” (THE UNIVERSITY OF TOKYO, priority 2014, dated 2020)

Test system: 1st-stage larvae of Haemonchus contortus
Experiment: Test for effect on motion of larvae of Haemonchus nematode
Settings: 20 larvae per well, 27° C./95% RH for 4 days, corrected against DMSO negative control, duplicate
Protocol: Test for Effect on Motion of Larvae of Haemonchus Nematode (Haemonchus contortus) The compound of the present invention was prepared as solutions in 100% DMSO at the final concentrations of 50 ppm, 5 ppm, 0.5 ppm, 0.05 ppm and 0.005 ppm. DMSO stands for dimethyl sulfoxide. A larval suspension containing 1st-stage larvae of Haemonchus contortus harvested by the Baermann technique (for example, see K. Nakazono et al., “Inclination of Baermann funnel wall and efficiency of nematode extraction” Proc. Assoc. Pl. Prot. Kyushu 33: 126-130 (1987)) was placed at a density of 20 larvae per well in a test plate, and 0.5 μL/well of the test solution containing the compound of the present invention diluted to a predetermined concentration was added to the test plate. The plate was kept under the conditions of 27° C./95% RH for 4 days. In the test, ivermectin was used for the positive control and DMSO was used for the negative control. The motor ability of the larvae was examined with an automatic analyzer equipped with an LCD camera. The inhibitory effect on the motion of the larvae in each treatment plot was corrected based on the inhibitory effect in the plot treated with DMSO only for the negative control. The EC50 value was calculated from the data on the corrected inhibitory effect on the motion of the larvae, and graded according to the criteria shown below. The test was conducted in duplicate per plot.

| SMILES | EC50 value of corrected inhibitory effect on the motion of the larvae, graded |
| --- | --- |
| CC(CNC(=O)c1ccccc1C(F)(F)F)c1ccc(Oc2ncc(C(F)(F)F)cc2Cl)cc1Cl (racemic) [Compound 1-41] | C or higher |
| CC(CNC(=O)c1ccccc1C(F)(F)F)c1ccc(Oc2ccc(C(F)(F)F)cn2)cc1Cl (racemic) [Compound 1-42] | C or higher |
| CC(CNC(=O)c1ccccc1C(F)(F)F)c1ccc(Oc2ncc(Cl)cc2Cl)cc1Cl (racemic) [Compound 1-43] | C or higher |
| CC(CNC(=O)c1ccccc1C(F)(F)F)c1ccc(-c2ccc(C(F)(F)F)cc2)cc1Cl (racemic) [Compound 1-57] | C or higher |
| CC(CNC(=O)c1ccccc1C(F)(F)F)c1ccc(-c2ccccc2)cc1Cl (racemic) [Compound 1-58] | C or higher |
| CC(CNC(=O)c1ccccc1C(F)(F)F)c1ccc(-c2ccncc2)cc1Cl (racemic) [Compound 1-59] | C or higher |
| COC(CNC(=O)c1ccccc1C(F)(F)F)c1ccc(Oc2ncc(C(F)(F)F)cc2Cl)cc1Cl (racemic) [Compound 1-60] | C or higher |
| COC(CNC(=O)c1ccccc1C(F)(F)F)c1ccc(Oc2ccc(C(F)(F)F)cn2)cc1Cl (racemic) [Compound 1-61] | C or higher |
| COC(CNC(=O)c1ccccc1C(F)(F)F)c1ccc(Oc2ncc(Cl)cc2Cl)cc1Cl (racemic) [Compound 1-62] | C or higher |
| O=C(NCCc1ccc(Oc2ncc(Cl)cc2Cl)cc1Cl)c1ccccc1C(F)(F)F [Compound 1-1] | C or higher |
| O=C(NCCc1ccc(Oc2ncc(Br)cc2Cl)cc1Cl)c1ccccc1C(F)(F)F [Compound 1-2] | C or higher |
| O=C(NCCc1ccc(Oc2nccnc2C(F)(F)F)cc1Cl)c1ccccc1C(F)(F)F [Compound 1-3] | C or higher |
| O=C(NCCc1ccc(Oc2nccnc2Cl)cc1Cl)c1ccccc1C(F)(F)F [Compound 1-4] | C or higher |
| O=C(NCCc1ccc(Oc2cnccn2)cc1Cl)c1ccccc1C(F)(F)F [Compound 1-5] | C or higher |
| COc1cc(OC)nc(Oc2ccc(CCNC(=O)c3ccccc3C(F)(F)F)c(Cl)c2)n1 [Compound 1-6] | C or higher |
| Cc1cc(C)nc(Oc2ccc(CCNC(=O)c3ccccc3C(F)(F)F)c(Cl)c2)n1 [Compound 1-7] | C or higher |
| O=C(NCCc1ccc(Oc2ccnc(Cl)n2)cc1Cl)c1ccccc1C(F)(F)F [Compound 1-8] | C or higher |
| O=C(NCCc1ccc(Oc2cc(Cl)nc(Cl)n2)cc1Cl)c1ccccc1C(F)(F)F [Compound 1-9] | C or higher |
| Cc1cc(Oc2ccc(CCNC(=O)c3ccccc3C(F)(F)F)c(Cl)c2)nc(Cl)n1 [Compound 1-10] | C or higher |
| Cc1cnc(Cl)nc1Oc1ccc(CCNC(=O)c2ccccc2C(F)(F)F)c(Cl)c1 [Compound 1-11] | C or higher |
| O=C(NCCc1ccc(Oc2ccc3ccccc3n2)cc1Cl)c1ccccc1C(F)(F)F [Compound 1-13] | C or higher |
| O=C(NCCc1ccc(Oc2cnc3ccccc3n2)cc1Cl)c1ccccc1C(F)(F)F [Compound 1-14] | C or higher |
| O=C(NCCc1ccc(Oc2nc3ccccc3s2)cc1Cl)c1ccccc1C(F)(F)F [Compound 1-15] | C or higher |

| SMILES | EC50 value of corrected inhibitory effect on the motion of the larvae, graded |
| --- | --- |
| O=C(NCCc1ccc(Oc2nc3ccc(Cl)cc3s2)cc1Cl)c1ccccc1C(F)(F)F [Compound 1-16] | C or higher |
| O=C(NCCc1ccc(Oc2nc3ccccc3o2)cc1Cl)c1ccccc1C(F)(F)F [Compound 1-17] | C or higher |
| O=C(NCCc1ccc(Oc2ccccc2)cc1Cl)c1ccccc1C(F)(F)F [Compound 1-18] | C or higher |
| O=C(NCCc1ccc(Oc2ccc(C(F)(F)F)cc2)cc1Cl)c1ccccc1C(F)(F)F [Compound 1-19] | C or higher |
| O=C(NCCc1ccc(Oc2ncc(C(F)(F)F)cc2Cl)cc1Cl)c1ccccc1I [Compound 1-20] | C or higher |
| O=C(NCCc1ccc(Oc2ccc(C(F)(F)F)cn2)cc1Cl)c1ccccc1I [Compound 1-21] | C or higher |
| O=C(NCCc1ccc(Oc2ncc(Cl)cc2Cl)cc1Cl)c1ccccc1I [Compound 1-22] | C or higher |
| O=C(NCCc1ccc(Oc2ncc(Br)cc2Cl)cc1Cl)c1ccccc1I [Compound 1-23] | C or higher |
| O=C(NCCc1ccc(Oc2nccnc2C(F)(F)F)cc1Cl)c1ccccc1I [Compound 1-24] | C or higher |
| O=C(NCCc1ccc(Oc2nccnc2Cl)cc1Cl)c1ccccc1I [Compound 1-25] | C or higher |
| O=C(NCCc1ccc(Oc2cnccn2)cc1Cl)c1ccccc1I [Compound 1-26] | C or higher |
| COc1cc(OC)nc(Oc2ccc(CCNC(=O)c3ccccc3I)c(Cl)c2)n1 [Compound 1-27] | C or higher |
| Cc1cc(C)nc(Oc2ccc(CCNC(=O)c3ccccc3I)c(Cl)c2)n1 [Compound 1-28] | C or higher |
| O=C(NCCc1ccc(Oc2ccnc(Cl)n2)cc1Cl)c1ccccc1I [Compound 1-29] | C or higher |
| O=C(NCCc1ccc(Oc2cc(Cl)nc(Cl)n2)cc1Cl)c1ccccc1I [Compound 1-30] | C or higher |
| Cc1cc(Oc2ccc(CCNC(=O)c3ccccc3I)c(Cl)c2)nc(Cl)n1 [Compound 1-31] | C or higher |
| Cc1cnc(Cl)nc1Oc1ccc(CCNC(=O)c2ccccc2I)c(Cl)c1 [Compound 1-32] | C or higher |
| O=C(NCCc1ccc(Oc2ccc3ccccc3n2)cc1Cl)c1ccccc1I [Compound 1-34] | C or higher |
| O=C(NCCc1ccc(Oc2cnc3ccccc3n2)cc1Cl)c1ccccc1I [Compound 1-35] | C or higher |
| O=C(NCCc1ccc(Oc2nc3ccccc3s2)cc1Cl)c1ccccc1I [Compound 1-36] | C or higher |
| O=C(NCCc1ccc(Oc2nc3ccc(Cl)cc3s2)cc1Cl)c1ccccc1I [Compound 1-37] | C or higher |
| O=C(NCCc1ccc(Oc2nc3ccccc3o2)cc1Cl)c1ccccc1I [Compound 1-38] | C or higher |
